Laboratory results taken from US9284274B2, “Chemical derivatives of jasmonate, pharmaceutical compositions and methods of use thereof” (RAMOT AT TEL-AVIV UNIVERSITY LTD., priority 2005, dated 2016).
Read-outs that look alike come from different tables or passages of the source.

Columns and labels:
[1] = system: Molt-4 human acute lymphoblastic leukemia cell-line; assay: Cytotoxicity, XTT Cell Proliferation Kit assay, Molt-4; type: cell-based; conditions: 24 hours; for IC50: XTT; for Cytotoxic effect on leukemic cells (FIG. 1): Molt-4, 0.005-0.5 mM
Description: (§1) Cell densities were as follows: Molt-4 (at 2.5×10^4 cells in 100 μl per well), CT26 (at 5×10^3 cells in 100 μl, per well), MCF7 (at 5×10^3 cells in 100 μL per well) and PBL (at 1.5×10^5 cells in 100 μl per well) seeded in 96-well plates. Adherent cells (CT26 and MCF7) were allowed to adhere over-night.
(§2) Jasmonate-derivatives were added at concentration ranging from 0.005-0.5 mM for 24 hours. Each experimental point was performed in triplicates. Untreated cells were used as control. […] Dilutions were performed in culture medium and ethanol so that the final concentration of ethanol in each well was 0.6%.
(§3) Optical density representing viable cells was determined using the XTT Cell Proliferation Kit assay (Biological industries, Beit-Haemek, Israel).
(§4) Percentage of Optical density is directly proportional to the number of living cells in culture. Cytotoxicity (%) was calculated in the following way: [(OD of control cells−OD of drug-treated cells)/OD of control cells]×100.
(§5) Mononuclear cells were isolated from peripheral blood of healthy donors and treated as described above. The non-adherent PBL were pre-incubated with PHA and TPA as described above. Molt-4 and PBL cells were seeded in 96-well plates as described above.
(§6) Each experimental point was performed in triplicates. Untreated cells were used as control. […] Optical density and percentage of Cytotoxicity were determined as described above.

[2] = system: CT26 murine colon carcinoma cell-line; assay: Cytotoxicity, XTT Cell Proliferation Kit assay, CT26; type: cell-based; conditions: Mus musculus, 24 hours, read-out: IC50 in CT-26
Description: as §1, §2, §3, §4

[3] = system: MCF7 human breast adenocarcinoma cell-line; assay: Cytotoxicity, XTT Cell Proliferation Kit assay, MCF7; type: cell-based; conditions: 24 hours, read-out: IC50 in MCF-7
Description: as §1, §2, §3, §4

[4] = system: normal lymphocytes (PBL) from healthy donors stimulated with PHA and TPA; assay: Cytotoxicity, XTT assay, normal lymphocytes (PBL); type: cell-based; conditions: 24 hours; for IC50: Lymphocyte, XTT, PBL pre-incubated with PHA and TPA; for Cytotoxic effect on normal lymphocytes (FIG. 1): PBL, 0.005-0.5 mM
Description: Mononuclear cells were isolated from peripheral blood of healthy donors by ficoll-hypaque density gradient centrifugation. The mononuclear cells were allowed to adhere to plastic dishes to remove macrophages. The non-adherent peripheral blood lymphocytes (PBL) were pre-incubated with 0.8 μg/mL PHA and 5 ng/mL TPA for 24 hours and then used in further experiments.
as §1, §2, §3, §4, §5, §6

[5] = system: squamous cell carcinoma cells (cell line A431); assay: Proliferation assay using XTT reagent, squamous cell carcinoma cells; type: cell-based; conditions: A431, three days, read-out: IC50 inhibition of proliferation of squamous cell carcinoma cells
Description: (§7) The effect of methyl jasmonate and compound 9 and 9A on the proliferation of squamous cell carcinoma cells (cell line A431) and basal cell carcinoma cells (cell line TE 354.T) was determined.
(§8) Cells were treated with various concentrations of methyl jasmonate and the compounds 9 and 9A for three days followed by a proliferation assay using XTT reagent (sodium 2,3,-bis(2-methoxy-4-nitro-5-sulfophenyl)-5-[(phenylamino)-carbonyl]-2H-tetrazolium inner salt).

[6] = system: basal cell carcinoma cells (cell line TE 354.T); assay: Proliferation assay using XTT reagent, basal cell carcinoma cells; type: cell-based; conditions: three days, read-out: IC50 inhibition of proliferation of basal cell carcinoma cells
Description: as §7, §8

[7] = system: lymphomas; conditions: U.S. Pat. No. 6,469,061; cited from earlier work
[8] = system: cancer cells; conditions: Fingrut et al., 2005; cited from earlier work
[9] = system: CXF 1299 colon adeno carcinoma; assay: Clonogenic assay (TCA), CXF 1299; type: cell-based; conditions: Homo sapiens, CXF 1299, Adeno carcinoma, read-out: IC50 colony formation
Description: (§9) Cancer cells were taken directly from cancer patients, employing the Tumor-Colony-Assay: Solid human tumor xenografts growing subcutaneously in serial passages in thymus aplastic nude mice were removed and disaggregated to obtain isolated tumor cells. Viable cells were added to culture medium supplemented with agar and plated in 24-multiwell dishes. The test compound was applied in the cultures that were incubated at 37° C. for 6-20 days and monitored for colony growth using an inverted microscope. At the time of maximum colony formation, colonies were counted and 24 hours prior to evaluation, stained with a vital dye. Drug effects were expressed in terms of the percentage of colony formation, obtained by comparison of the mean number of colonies in the treated wells with the mean colony count of untreated controls. IC50 values, being the drug concentrations necessary to inhibit colony formation by 50%, were determined by plotting compound concentration versus relative colony count.

[10] = system: CXF 280 colon adeno carcinoma, ud; assay: Clonogenic assay (TCA), CXF 280; type: cell-based; conditions: Homo sapiens, CXF 280, Adeno carcinoma, read-out: IC50 colony formation
Description: as §9

[11] = system: GXF 214 stomach adeno carcinoma, ud; assay: Clonogenic assay (TCA), GXF 214; type: cell-based; conditions: Homo sapiens, GXF 214, Adeno carcinoma, read-out: IC50 colony formation
Description: as §9

[12] = system: LXFA 1012 lung, non small, adeno carcinoma, pd; assay: Clonogenic assay (TCA), LXFA 1012; type: cell-based; conditions: Homo sapiens, LXFA 1012, Adeno carcinoma, read-out: IC50 colony formation
Description: as §9

[13] = system: LXFA 1041 lung, non small, adeno carcinoma, md; assay: Clonogenic assay (TCA), LXFA 1041; type: cell-based; conditions: Homo sapiens, LXFA 1041, Adeno carcinoma, read-out: IC50 colony formation
Description: as §9

[14] = system: LXFA 629 lung, non small, adeno carcinoma, pd; assay: Clonogenic assay (TCA), LXFA 629; type: cell-based; conditions: Homo sapiens, LXFA 629, Adeno carcinoma, read-out: IC50 colony formation
Description: as §9

[15] = system: LXFA 749 lung, non small, adeno carcinoma, pd; assay: Clonogenic assay (TCA), LXFA 749; type: cell-based; conditions: Homo sapiens, LXFA 749, Adeno carcinoma, read-out: IC50 colony formation
Description: as §9

[16] = system: LXFL 430 large cell lung carcinoma, ud; assay: Clonogenic assay (TCA), LXFL 430; type: cell-based; conditions: Homo sapiens, non small, read-out: IC50 colony formation
Description: as §9

[17] = system: LXFS 573 small cell lung carcinoma; assay: Clonogenic assay (TCA), LXFS 573; type: cell-based; conditions: Homo sapiens, read-out: IC50 colony formation
Description: as §9

[18] = system: MAXF 1322 breast papillary adeno carcinoma, pd; assay: Clonogenic assay (TCA), MAXF 1322; type: cell-based; conditions: Homo sapiens, MAXF 1322, Papillary adeno carcinoma, read-out: IC50 colony formation
Description: as §9

[19] = system: MAXF 857 breast invasive ductal carcinoma; assay: Clonogenic assay (TCA), MAXF 857; type: cell-based; conditions: Homo sapiens, MAXF 857, Invasive ductal carcinoma, read-out: IC50 colony formation
Description: as §9

[20] = system: RXF 1220 kidney hypernephroma, pd; assay: Clonogenic assay (TCA), RXF 1220; type: cell-based; conditions: Homo sapiens, RXF 1220, Hypernephroma, read-out: IC50 colony formation
Description: as §9

[21] = system: RXF 423 kidney hypernephroid adeno carcinoma; assay: Clonogenic assay (TCA), RXF 423; type: cell-based; conditions: Homo sapiens, RXF 423, Hypernephroid adeno carcinoma, read-out: IC50 colony formation
Description: as §9

[22] = system: CT-26 colon carcinoma cells; assay: ATP levels, CellTiter-Glo Luminescent Cell Viability Assay; type: cell-based, Murine
Description: CT-26 cells were exposed to compound 9 for 3 hours and ATP levels were measured using the CellTiter-Glot Luminescent Cell Viability Assay (Promega, Madison, Wis., U.S.A.). […] It thus appears that a drop in cellular energy levels may precipitate the cytotoxic effect of compound 9.

[23] = system: B16F10 melanoma cells; assay: Experimental metastasis of B16 melanoma cells to the lungs in vivo; design: species or system C57bl mice; conditions: 10 mg/kg i.v. once daily, 5 days a week for 3 weeks; lungs weighed after 22 days
Description: The experiment was comprised of 3 groups of C57bl mice (12-15 weeks old, n=12), total of 36 all inoculated with B16F10 melanoma cells, 0.1 ml of B16F10 in PBS×1, inoculums of 7×10^5 cells per mouse. Group M1—non treated, Group M2—treated once daily, 5 days a week for 3 weeks with Compound 9 dissolved with surfactants (10 mg/kg, diluted 1:5 with Saline, i.v.), and Group M3—a positive control group treated with Paclitaxel once in 7 days (15 mg/kg, i.v.). After 22 days, mice were sacrificed and lungs were weighed. Lungs with metastases weigh more than normal lungs (which weigh about 200 mg), and a decrease in lung weight in comparison to control tumor-bearing untreated mice signifies an anti-metastatic effect.

CCCCCC1C(=O)CCC1CCO[Si](C)(C)C(C)(C)C (centres unmarked) [Compound 6]
IC50 ([1]; Homo sapiens, MOLT-4): 56 ± 11 µM
IC50 [2]: 263 ± 212 µM
IC50 [3]: 236 ± 180 µM
IC50 [4]: 90 ± 14 µM

CC/C=C\CC1C(=O)CCC1CC(=O)NC(CC(C)C)C(=O)OC (centres unmarked) [Compound 10]
IC50 ([1]; Homo sapiens, MOLT-4): 243 ± 39 µM
IC50 [2]: > 500 µM
IC50 [4]: > 500 µM

CCC1C(CC2C(=O)CCC2CC(=O)OC)C1(Cl)Cl (centres unmarked) [Compound 7]
IC50 ([1]; Homo sapiens, MOLT-4): 125 ± 26 µM
IC50 [2]: 393 ± 141 µM
IC50 [3]: 323 ± 75 µM
IC50 [4]: 425 ± 21 µM

CC/C=C\CC1C(=O)CCC1CCOC(C)=O (centres unmarked) [Compound 2]
IC50 ([1]; Homo sapiens, MOLT-4): 440 ± 109 µM
IC50 [2]: > 500 µM
IC50 [3]: > 500 µM
IC50 [4]: > 500 µM

CC/C=C\CC1C(=O)CCC1CC(=O)OC1OC(CO)C(O)C(O)C1O (centres unmarked) [Compound 11]
IC50 ([1]; Homo sapiens, MOLT-4): 79 ± 6 µM
Cytotoxic effect on leukemic cells (FIG. 1) [1]: kill leukemic cells
IC50 [2]: 237 ± 29 µM
IC50 [3]: 110 ± 20 µM
IC50 [4]: 323 ± 211 µM
Cytotoxic effect on normal lymphocytes (FIG. 1) [4]: without exerting a substantial effect on normal lymphocytes

CC/C=C\CC1C(=O)CCC1CC(=O)OC (centres unmarked) [Methyl jasmonate, methyl jasmonate, reference compound]
IC50 ([5]; Homo sapiens, A-431, 72 h): 14 µM
IC50 ([6]; 72 h): 16 µM
Prevention of development of lymphomas in mice [7]: effective in preventing development of lymphomas in mice
Decrease in ATP levels in cancer cells [8]: can cause a decrease in ATP levels in cancer cells

CCCCCC1C(=O)CCC1CC(=O)Oc1cccc2cccnc12 (centres unmarked) [Compound 9A]
IC50 [1]: 10 µM
IC50 [5]: 0.036 µM
IC50 [6]: 0.116 µM

CCC(Br)C(Br)CC1C(=O)CCC1CCO (centres unmarked) [Compound 8]
IC50 ([1]; Homo sapiens, MOLT-4): 50 ± 28 µM
IC50 [2]: 163 ± 42 µM
IC50 [3]: 120 ± 60 µM
IC50 [4]: 60 ± 14 µM

CC/C=C\CC1C(=O)CCC1CC(=O)Oc1cccc2cccnc12 (centres unmarked) [Compound 9]
IC50 ([1]; Homo sapiens, MOLT-4): 12 ± 9 µM
Cytotoxic effect on leukemic cells (FIG. 1) [1]: kill leukemic cells
IC50 [2]: 29 ± 21 µM
IC50 [3]: 60 ± 14 µM
IC50 [4]: 200 ± 85 µM
Cytotoxic effect on normal lymphocytes (FIG. 1) [4]: without exerting a substantial effect on normal lymphocytes
IC50 [9]: 1.12 µM
IC50 [10]: 5.44 µM
IC50 [11]: 1.94 µM
IC50 [12]: 1.32 µM
IC50 [13]: 1.5 µM
IC50 [14]: 1.38 µM
IC50 [15]: 1.7 µM
IC50 [16]: < 1 µM
IC50 [17]: 1.93 µM
IC50 [18]: 1.55 µM
IC50 [19]: 1.55 µM
IC50 [20]: 6.32 µM
IC50 [21]: 1.69 µM
Drop in cellular ATP levels (FIG. 2) ([22]; 3 hours exposure, 0.2 or 0.5 mM compound): induced a significant drop in cellular ATP levels
Effect of high glucose on the ATP drop (FIG. 2) ([22]; 3 hours, high (28 mM) versus low (2 mM) glucose): this effect was decreased in the presence of high glucose levels
Suppression of lung metastasis (lung weight, FIG. 3) [23]: very effective in suppressing lung metastasis
IC50 ([5]; Homo sapiens, A-431, 72 h): 0.089 µM
IC50 ([6]; 72 h): 0.049 µM
